The structures appear in SMILES notation.

The source of these data is US11400081B2, “Compounds” (The University of Sheffield, priority 2017, dated 2022).

This test deals with T1, AM2 receptor (CALCRL+RAMP3) (Homo sapiens, UniProt O60896+Q16602).
T1 construct: host or cells: 1321N1
T1 sequence (Q16602 23-461): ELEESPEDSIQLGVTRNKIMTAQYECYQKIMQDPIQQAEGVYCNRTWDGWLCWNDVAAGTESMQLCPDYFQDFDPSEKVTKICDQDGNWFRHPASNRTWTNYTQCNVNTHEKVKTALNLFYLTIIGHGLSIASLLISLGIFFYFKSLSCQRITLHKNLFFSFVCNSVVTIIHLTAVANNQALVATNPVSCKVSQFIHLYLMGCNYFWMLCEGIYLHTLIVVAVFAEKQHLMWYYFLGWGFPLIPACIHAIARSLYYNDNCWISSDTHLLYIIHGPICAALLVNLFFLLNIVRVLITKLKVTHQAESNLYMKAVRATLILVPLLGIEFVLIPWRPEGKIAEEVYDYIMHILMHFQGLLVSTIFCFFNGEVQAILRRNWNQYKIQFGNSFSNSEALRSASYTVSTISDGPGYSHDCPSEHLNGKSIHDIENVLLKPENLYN
T1 sequence (O60896 24-148): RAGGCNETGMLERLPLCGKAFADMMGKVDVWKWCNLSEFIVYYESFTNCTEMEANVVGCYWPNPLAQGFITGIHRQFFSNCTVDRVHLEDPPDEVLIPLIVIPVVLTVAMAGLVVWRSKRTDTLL
In words: AM2 receptor inhibition, LANCE TR-FRET cAMP agonist-antagonist competition assay. The following applies: inhibition of AM induced cAMP activation; 1321N1 cells transfected with CALCRL+RAMP3; read-out: AM2 pIC50 (converted). The class given is cell-based. Here is the method:
Compounds were assessed for their ability to inhibit ligand-induced elevations of cAMP, using the Perkin Elmer LANCE cAMP assay using commercially-available cells expressing a specific receptor of interest using the following general procedure:
Compounds were prepared in dimethyl sulfoxide (DMSO—99.9% pure) (Sigma Aldrich, Cat #: D4540) added to powder stocks to produce a 20 mM solution (100% DMSO) that was sonicated at 37° C. for 10 minutes to fully dissolve the compounds. The 20 mM stocks were diluted further in DMSO to produce a 2 mM solution that was sonicated at 37° C. for 10 minutes. 2 mM stocks were dissolved in assay/stimulation buffer to produce a 400 μM solution that was sonicated at 37° C. for 10 minutes for all cAMP assays. All stocks were stored at −20° C. Then serial dilution (Dilution factor 10) was performed to achieve the desire experimental concentrations.
Competition assays were performed according to the manufactures instructions using LANCE® TR-FRET cAMP assay kit (Perkin Elmer, Cat #: AD0264). Serial dilutions (3 μl/well) of the molecules were plated in a 384-well OptiPlate (Perkin Elmer, Cat #: 6007299) in duplicates. Appropriate controls (100% stimulation: Forskolin and 0% stimulation: Vehicle control) (6 μl/well) were included in each plate for data normalization. Following the compound addition, 6 μl of G-protein coupled receptor overexpressing cells/Alexa Fluor antibody solution (1:100 dilution) was added in each well at a desired density of 2500 cells/well. The overexpressing cell lines were purchased from DiscoveRx, Birmingham, UK. After spinning the plate at 1000 rpm for 1 minute and vortexing briefly, the cells were pre-incubated with the compounds for 30 minutes at room temperature (covered). Then 3 μl of the equivalent peptide ligand (EC50 dose) was added to all the wells except vehicle and forskolin controls. The plate were then spun down at 1000 rpm for 1 minute and once finished they were vortexed briefly and covered. Cells were stimulated in the presence of the ligands for 15 minutes at room temperature. After stimulation 12 μl of detection mix (Europium-Chelate streptavidin/biotinylated cAMP tracer solution) was added to all wells and incubated for 60 minutes at room temperature. The plate was then read on the Enspire multimode Plate reader (Perkin Elmer), at; 320/340 nm excitation and 615/665 nm emission was recorded.
• 28 mL Hank's Balanced salt solution (+MgCl2, +CaCl2)—(Thermo Fisher Cat #:14170112) • 150 μl HEPES (1M)—(Thermo Fisher Cat #:15630080) • 400 μl Stabilizer (DTPA) Purified BSA (7.5%)—(Perkin Elmer, Cat #: CR84-100) • 60 μl IBMX (250 mM)—(Sigma Aldrich, Cat #: 15879) Specific cAMP/Agonist-Antagonist Competition Assays
The ability of a compound to inhibit the AM induced cAMP activation in AM2 receptor-expressing cells (1321N1 cells transfected with CALCRL+RAMP3, sourced from DiscoverX catalogue number 95-0169C6) was assessed using the protocol above.
As for `CC(C)(C)C(=O)N(CC(=O)Nc1ccc2c(c1)CC1(C2)C(=O)Nc2ncccc21)Cc1ccccc1CNCC(F)F` (centres unmarked) [Example 3, N-(2-(((2,2-Difluoroethyl)amino)methyl)benzyl)-N-(2-oxo-2-((2′-oxo-1,1′,2′,3-tetrahydrospiro[indene-2,3′-pyrrolo[2,3-b]pyridine]-5-yl)amino)ethyl)pivalamide], the IC50 was 324 nM.

With `CC(C)(C)C(=O)N(CC(=O)Nc1ccc2c(c1)CC1(C2)C(=O)Nc2ncccc21)Cc1ccccc1CN1CCCC1` (centres unmarked) [Example 4, N-(2-Oxo-2-((2′-oxo-1,1′,2′,3-tetrahydrospiro[indene-2,3′-pyrrolo[2,3-b]pyridine]-5-yl)amino)ethyl)-N-(2-(pyrrolidin-1-ylmethyl)benzyl)pivalamide], the IC50 is 60.3 nM.

Take `CC(C)(C)C(=O)N(CC(=O)Nc1ccc2c(c1)CC1(C2)C(=O)Nc2ncccc21)Cc1ccccc1CNCC(F)(F)F` (centres unmarked) [Example 6, N-(2-Oxo-2-((2′-oxo-1,1′,2′,3-tetrahydrospiro[indene-2,3′-pyrrolo[2,3-b]pyridine]-5-yl)amino)ethyl)-N-(2-(((2,2,2-trifluoroethyl)amino)methyl)benzyl)pivalamide]: the IC50 is 513 nM.

Take `CN(C)CCNCc1ccccc1CN(CC(=O)Nc1ccc2c(c1)CC1(C2)C(=O)Nc2ncccc21)C(=O)C(C)(C)C` (centres unmarked) [Example 7, N-(2-(((2-(Dimethylamino)ethyl)amino)methyl)benzyl)-N-(2-oxo-2-((2′-oxo-1,1′,2′,3-tetrahydrospiro[indene-2,3′-pyrrolo[2,3-b]pyridine]-5-yl)amino)ethyl)pivalamide]: the IC50 is 126 nM.

Turning to `CC(C)(C)C(=O)N(CC(=O)Nc1ccc2c(c1)CC1(C2)C(=O)Nc2ncccc21)Cc1ccccc1CNCC1CC1` (centres unmarked) [Example 8, N-(2-(((Cyclopropylmethyl)amino)methyl)benzyl)-N-(2-oxo-2-((2′-oxo-1,1′,2′,3-tetrahydrospiro[indene-2,3′-pyrrolo[2,3-b]pyridine]-5-yl)amino)ethyl)pivalamide], the IC50 was 166 nM.

Consider `CC(C)(C)C(=O)N(CC(=O)Nc1ccc2c(c1)CC1(C2)C(=O)Nc2ncccc21)Cc1ccccc1CNCc1ncc[nH]1` (centres unmarked) [Example 9, N-(2-((((1H-Imidazol-2-yl)methyl)amino)methyl)benzyl)-N-(2-oxo-2-((2′-oxo-1,1′,2′,3-tetrahydrospiro[indene-2,3′-pyrrolo[2,3-b]pyridine]-5-yl)amino)ethyl)pivalamide], for which the IC50 was 240 nM.

As to `CC(C)(C)C(=O)N(CC(=O)Nc1ccc2c(c1)CC1(C2)C(=O)Nc2ncccc21)Cc1ccccc1CN1CC(F)C1` (centres unmarked) [Example 10, N-(2-((3-Fluoroazetidin-1-yl)methyl)benzyl)-N-(2-oxo-2-((2′-oxo-1,1′,2′,3-tetrahydrospiro[indene-2,3′-pyrrolo[2,3-b]pyridin]-5-yl)amino)ethyl)pivalamide], the IC50 is 91.2 nM.

For `CC(C)(C)C(=O)N(CC(=O)Nc1ccc2c(c1)CC1(C2)C(=O)Nc2ncccc21)Cc1ccccc1CN1CC(F)(F)C1` (centres unmarked) [Example 11, N-(2-((3,3-Difluoroazetidin-1-yl)methyl)benzyl)-N-(2-oxo-2-((2′-oxo-1,1′,2′,3-tetrahydrospiro[indene-2,3′-pyrrolo[2,3-b]pyridin]-5-yl)amino)ethyl)pivalamide], the IC50 is 398 nM.

As for `CN(C)CCCNCc1ccccc1CN(CC(=O)Nc1ccc2c(c1)CC1(C2)C(=O)Nc2ncccc21)C(=O)C(C)(C)C` (centres unmarked) [Example 12, N-(2-(((3-(Dimethylamino)propyl)amino)methyl)benzyl)-N-(2-oxo-2-((2′-oxo-1,1′,2′,3-tetrahydrospiro[indene-2,3′-pyrrolo[2,3-b]pyridin]-5-yl)amino)ethyl)pivalamide], the IC50 was 186 nM.

`CC(C)(C)C(=O)N(CC(=O)Nc1ccc2c(c1)CC1(C2)C(=O)Nc2ncccc21)Cc1ccccc1CNCCO` (centres unmarked) [Example 13, N-(2-(((2-Hydroxyethyl)amino)methyl)benzyl)-N-(2-oxo-2-((2′-oxo-1,1′,2′,3-tetrahydrospiro[indene-2,3′-pyrrolo[2,3-b]pyridin]-5-yl)amino)ethyl)pivalamide]: the IC50 is 33.1 nM.

In the case of `CC(C)(C)C(=O)N(CC(=O)Nc1ccc2c(c1)CC1(C2)C(=O)Nc2ncccc21)Cc1ccccc1CNCCF` (centres unmarked) [Example 17, N-(2-(((2-Fluoroethyl)amino)methyl)benzyl)-N-(2-oxo-2-((2′-oxo-1,1′,2′,3-tetrahydrospiro[indene-2,3′-pyrrolo[2,3-b]pyridin]-5-yl)amino)ethyl)pivalamide], the IC50 is 12.3 nM.

Consider `COCCNCc1ccccc1CN(CC(=O)Nc1ccc2c(c1)CC1(C2)C(=O)Nc2ncccc21)C(=O)C(C)(C)C` (centres unmarked) [Example 18, N-(2-(((2-Methoxyethyl)amino)methyl)benzyl)-N-(2-oxo-2-((2′-oxo-1,1′,2′,3-tetrahydrospiro[indene-2,3′-pyrrolo[2,3-b]pyridin]-5-yl)amino)ethyl)pivalamide], for which the IC50 was 33.1 nM.

In the case of `CC(C)NCc1ccccc1CN(CC(=O)Nc1ccc2c(c1)CC1(C2)C(=O)Nc2ncccc21)C(=O)C(C)(C)C` (centres unmarked) [Example 19, N-(2-((Isopropylamino)methyl)benzyl)-N-(2-oxo-2-((2′-oxo-1,1′,2′,3-tetrahydrospiro[indene-2,3′-pyrrolo[2,3-b]pyridin]-5-yl)amino)ethyl)pivalamide], the IC50 was 89.1 nM.

Consider `CC(C)(C)C(=O)N(CC(=O)Nc1ccc2c(c1)CC1(C2)C(=O)Nc2ncccc21)Cc1ccccc1CNC1CCC1` (centres unmarked) [Example 20, N-(2-((Cyclobutylamino)methyl)benzyl)-N-(2-oxo-2-((2′-oxo-1,1′,2′,3-tetrahydrospiro[indene-2,3′-pyrrolo[2,3-b]pyridin]-5-yl)amino)ethyl)pivalamide], for which the IC50 was 105 nM.

For `CNC(C)c1ccccc1CN(CC(=O)Nc1ccc2c(c1)CC1(C2)C(=O)Nc2ncccc21)C(=O)C(C)(C)C` (centres unmarked) [Example 23, N-(2-(1-(Methylamino)ethyl)benzyl)-N-(2-oxo-2-((2′-oxo-1,1′,2′,3-tetrahydrospiro[indene-2,3′-pyrrolo[2,3-b]pyridin]-5-yl)amino)ethyl)pivalamide], the IC50 was 13.2 nM.

Turning to `CC(c1ccccc1CN(CC(=O)Nc1ccc2c(c1)CC1(C2)C(=O)Nc2ncccc21)C(=O)C(C)(C)C)N(C)C` (centres unmarked) [Example 24, N-(2-(1-(Dimethylamino)ethyl)benzyl)-N-(2-oxo-2-((2′-oxo-1,1′,2′,3-tetrahydrospiro[indene-2,3′-pyrrolo[2,3-b]pyridin]-5-yl)amino)ethyl)pivalamide], the IC50 is 34.7 nM.

Regarding `CC(c1ccccc1CN(CC(=O)Nc1ccc2c(c1)CC1(C2)C(=O)Nc2ncccc21)C(=O)C(C)(C)C)N1CCC1` (centres unmarked) [Example 25, N-(2-(1-(Azetidin-1-yl)ethyl)benzyl)-N-(2-oxo-2-((2′-oxo-1,1′,2′,3-tetrahydrospiro[indene-2,3′-pyrrolo[2,3-b]pyridin]-5-yl)amino)ethyl)pivalamide], the IC50 is 75.9 nM.

With `CCNCc1ccccc1CN(CC(=O)Nc1ccc2c(c1)CC1(C2)C(=O)Nc2ncccc21)C(=O)C(C)(C)C` (centres unmarked) [Example 27, N-(2-((Ethylamino)methyl)benzyl)-N-(2-oxo-2-((2′-oxo-1,1′,2′,3-tetrahydrospiro[indene-2,3′-pyrrolo[2,3-b]pyridin]-5-yl)amino)ethyl)pivalamide], the IC50 was 30.2 nM.

As to `C=CCN(CC=C)CCc1ccccc1CN(CC(=O)Nc1ccc2c(c1)CC1(C2)C(=O)Nc2ncccc21)C(=O)C(C)(C)C` (centres unmarked) [Example 28, N-(2-(2-(Diallylamino)ethyl)benzyl)-N-(2-oxo-2-((2′-oxo-1,1′,2′,3-tetrahydrospiro[indene-2,3′-pyrrolo[2,3-b]pyridin]-5-yl)amino)ethyl)pivalamide], the IC50 was 490 nM.

As for `CN(C)Cc1ccccc1CN(CC(=O)Nc1ccc2c(c1)CC1(C2)C(=O)Nc2ncccc21)C(=O)C(C)(C)C` (centres unmarked) [Example 30, N-(2-((Dimethylamino)methyl)benzyl)-N-(2-oxo-2-((2′-oxo-1,1′,2′,3-tetrahydrospiro[indene-2,3′-pyrrolo[2,3-b]pyridin]-5-yl)amino)ethyl)pivalamide], the IC50 is 29.5 nM.
